Results as given in ChEMBL document CHEMBL1127286, “Quantitative structure-activity relationships study of endothelin-1 analogs” (Bioorg Med Chem Lett, 1994).

Legend:
[1] = biological target: T1, Endothelin receptor type B (Rattus norvegicus) (UniProt P21451); test: Concentration required to produce 50% inhibition of binding against ET B receptor obtained from rat brain membrane
T1 sequence (whole entry): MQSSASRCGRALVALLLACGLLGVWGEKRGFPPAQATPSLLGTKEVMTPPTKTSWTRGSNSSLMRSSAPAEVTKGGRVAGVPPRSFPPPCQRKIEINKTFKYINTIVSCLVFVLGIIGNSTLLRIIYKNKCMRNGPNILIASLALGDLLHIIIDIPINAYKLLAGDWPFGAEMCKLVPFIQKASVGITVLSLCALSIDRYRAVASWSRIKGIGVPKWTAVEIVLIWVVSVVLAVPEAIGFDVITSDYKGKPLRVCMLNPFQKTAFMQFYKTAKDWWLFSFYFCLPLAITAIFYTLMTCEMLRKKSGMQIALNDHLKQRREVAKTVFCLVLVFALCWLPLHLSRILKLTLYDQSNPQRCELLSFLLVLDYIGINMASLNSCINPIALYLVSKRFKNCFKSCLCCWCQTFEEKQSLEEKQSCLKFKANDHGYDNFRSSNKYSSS

[2] = biological target: T2, Endothelin-1 receptor (Rattus norvegicus) (UniProt P26684); test: Concentration required to produce 50% inhibition of binding against ET A receptor obtained from rat thoracic aortic membrane
T2 sequence (whole entry): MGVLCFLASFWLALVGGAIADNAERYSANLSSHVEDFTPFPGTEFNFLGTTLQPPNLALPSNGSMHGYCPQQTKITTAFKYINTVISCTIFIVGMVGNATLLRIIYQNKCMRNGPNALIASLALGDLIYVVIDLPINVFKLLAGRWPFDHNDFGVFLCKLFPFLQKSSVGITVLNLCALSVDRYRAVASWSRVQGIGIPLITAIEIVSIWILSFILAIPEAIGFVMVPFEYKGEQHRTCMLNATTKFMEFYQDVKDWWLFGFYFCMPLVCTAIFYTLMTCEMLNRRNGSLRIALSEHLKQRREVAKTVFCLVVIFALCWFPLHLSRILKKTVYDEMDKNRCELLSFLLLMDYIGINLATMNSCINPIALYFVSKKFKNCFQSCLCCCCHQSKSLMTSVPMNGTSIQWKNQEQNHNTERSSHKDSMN

| pIC50 [1] | pIC50 [2] | Structure (SMILES) |
| --- | --- | --- |
| 9.05 | 9 | CC[C@@H](C)[C@H](NC(=O)[C@H](CC(=O)O)NC(=O)[C@H](CC(C)C)NC(=O)[C@H](Cc1c[nH]cn1)NC(=O)[C@H](CS)NC(=O)[C@H](Cc1ccccc1)NC(=O)[C@H](Cc1ccc(O)cc1)NC(=O)[C@@H](NC(=O)[C@H](CS)NC(=O)[C@H](CCC(=O)O)NC(=O)[C@H](CCCCN)NC(=O)[C@H](CC(=O)O)NC(=O)[C@H](CCSC)NC(=O)[C@H](CC(C)C)NC(=O)[C@H](CO)NC(=O)[C@H](CO)NC(=O)[C@H](CS)NC(=O)[C@H](CO)NC(=O)[C@@H](N)CS)C(C)C)C(=O)N[C@@H](C(=O)N[C@@H](Cc1c[nH]c2ccccc12)C(=O)O)C(C)C |
| 9.4 | 7.53 | CC[C@@H](C)[C@H](NC(=O)[C@H](CC(=O)O)NC(=O)[C@H](CC(C)C)NC(=O)[C@H](Cc1c[nH]cn1)NC(=O)[C@H](CS)NC(=O)[C@H](Cc1ccccc1)NC(=O)[C@H](Cc1ccc(O)cc1)NC(=O)[C@@H](NC(=O)[C@H](CS)NC(=O)[C@H](CCC(=O)O)NC(=O)[C@H](CCCCN)NC(=O)[C@H](CC(=O)O)NC(=O)[C@H](CCSC)NC(=O)[C@H](CC(C)C)NC(=O)[C@H](CO)NC(=O)[C@H](CO)NC(=O)[C@H](CS)NC(=O)[C@H](CO)NC(=O)[C@@H](N)CS)C(C)C)C(=O)N[C@@H](C)C(=O)N[C@@H](Cc1c[nH]c2ccccc12)C(=O)O |
| 8.6 | 6.07 | CC[C@@H](C)[C@H](NC(=O)[C@H](CC(=O)O)NC(=O)[C@H](CC(C)C)NC(=O)[C@H](Cc1c[nH]cn1)NC(=O)[C@H](CS)NC(=O)[C@H](Cc1ccccc1)NC(=O)[C@H](Cc1ccc(O)cc1)NC(=O)[C@@H](NC(=O)[C@H](CS)NC(=O)[C@H](CCC(=O)O)NC(=O)[C@H](CCCCN)NC(=O)[C@H](CC(=O)O)NC(=O)[C@H](CCSC)NC(=O)[C@H](CC(C)C)NC(=O)[C@H](CO)NC(=O)[C@H](CO)NC(=O)[C@H](CS)NC(=O)[C@H](CO)NC(=O)[C@@H](N)CS)C(C)C)C(=O)N[C@H](Cc1ccccc1)C(=O)N[C@@H](Cc1c[nH]c2ccccc12)C(=O)O |
